According to article PMC3445516 (PLoS ONE, 2012):
Where two headings read alike, the source gives them in different places.

What was measured:
[1] = target: T1, recombinant GST-tagged human protein kinase D1 (PKD1) (Homo sapiens, UniProt Q15139); assay: In vitro radiometric PKD1 kinase assay; assay type: biochemical; settings: read-out: Inhibition of PKD1
T1 construct: purchased Enzo Life sciences (Farmingdale, NY)
T1 sequence (Q15139 1-912): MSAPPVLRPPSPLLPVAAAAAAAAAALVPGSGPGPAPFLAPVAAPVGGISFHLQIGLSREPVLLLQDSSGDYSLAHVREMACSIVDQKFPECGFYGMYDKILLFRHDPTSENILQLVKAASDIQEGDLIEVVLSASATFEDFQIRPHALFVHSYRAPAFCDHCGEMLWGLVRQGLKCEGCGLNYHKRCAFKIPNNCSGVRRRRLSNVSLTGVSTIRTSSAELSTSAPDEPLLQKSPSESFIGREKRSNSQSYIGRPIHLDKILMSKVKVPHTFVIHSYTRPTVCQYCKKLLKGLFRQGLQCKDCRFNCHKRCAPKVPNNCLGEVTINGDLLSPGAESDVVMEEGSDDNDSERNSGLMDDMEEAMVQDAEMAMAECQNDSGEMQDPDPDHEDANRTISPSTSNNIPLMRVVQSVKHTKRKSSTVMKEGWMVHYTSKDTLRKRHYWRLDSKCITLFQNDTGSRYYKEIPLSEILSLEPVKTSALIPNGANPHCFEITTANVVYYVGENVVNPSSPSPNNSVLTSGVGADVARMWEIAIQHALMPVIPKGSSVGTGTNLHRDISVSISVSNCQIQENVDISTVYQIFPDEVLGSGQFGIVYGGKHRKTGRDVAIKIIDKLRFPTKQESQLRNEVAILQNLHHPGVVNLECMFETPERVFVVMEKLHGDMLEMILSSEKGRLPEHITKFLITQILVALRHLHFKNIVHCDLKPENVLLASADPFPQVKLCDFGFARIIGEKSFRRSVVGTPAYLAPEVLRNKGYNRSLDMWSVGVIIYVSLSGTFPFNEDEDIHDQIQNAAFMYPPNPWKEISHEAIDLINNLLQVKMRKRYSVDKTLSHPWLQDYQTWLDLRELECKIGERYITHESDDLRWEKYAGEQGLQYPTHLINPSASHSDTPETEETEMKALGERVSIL
Description: All compounds were given distinct UPCMLD (University of Pittsburgh Center for Chemical Methodologies and Library Development) IDs and were then assigned numerical IDs for convenient data display. Evaluation of each compound was carried out in triplicate at a single concentration (1 µM). Our previously described PKD1 inhibitor, kb-NB142-70, and DMSO (solvent alone) were used as positive and negative controls, respectively. Percent residual kinase activity was calculated based on that of the negative control (DMSO).
Kinase active recombinant GST-tagged human protein kinase D1 (PKD1) was obtained from Enzo Life sciences (Farmingdale, NY). DMSO was purchased from Sigma. Recombinant PKCα, PKCδ and CAMKIIα were obtained from SignalChem (Richmond, BC, Canada). ATP was purchased from Fisher Scientific. HDAC5 substrate peptide was synthesized by Biobasic Canada Inc. (Markham, ON). Myelin basic protein 4–14 was purchased from AnaSpec Inc. (Fremont, CA). The targeted kinase inhibitor library was obtained from Hoffmann-La Roche, Inc.
1.2 µg of HDAC-5 was used as substrate in the reaction. Phosphorylation of HDAC5 was detected in a kinase reaction having 1 µCi [γ-^32P] […] The reaction was incubated at 30° for 10 minutes and 25 µL of the reaction was spotted on Whatman P81 filter paper. The filter paper was washed 3 times in 0.5% phosphoric acid, air dried and counted using Beckman LS6500 multipurpose scintillation counter. Percent PKD1 inhibition was graphed using GraphPad Prism software 5.0.

[2] = target: p38α (Homo sapiens, UniProt Q16539); settings: 10 and 100 nM
Description: Phosphorylation of 3.5 µg of p38 substrate was detected in a reaction having 1 µCi [γ-^32P] ATP (Perkin Elmer Life Sciences), 50 µM ATP, 50 ng active recombinant p38 in 50 µL kinase buffer containing 25 mM Tris-HCl, pH 7.5, 10 mM MgCl2, 5 mM β-glycerophosphate, 0.1 mM Na3VO4 and 2 mM DTT. The reaction was incubated at 30°C for 10 minutes and 25 µL of the reaction was spotted on Whatman P81 filter paper. The filter paper was washed 3 times in 0.5% phosphoric acid, air dried and counted using Beckman LS6500 multipurpose scintillation counter. Percent p38 inhibition was graphed using GraphPad Prism software 5.0.

[3] = target: T2, BMPR2 (Homo sapiens, UniProt Q13873); assay: Ambit kinase profiling, competition binding; settings: compound concentration 10 uM
T2 construct: purchased Ambit Biosciences (KINOMEscan)
T2 sequence (Q13873 27-1038): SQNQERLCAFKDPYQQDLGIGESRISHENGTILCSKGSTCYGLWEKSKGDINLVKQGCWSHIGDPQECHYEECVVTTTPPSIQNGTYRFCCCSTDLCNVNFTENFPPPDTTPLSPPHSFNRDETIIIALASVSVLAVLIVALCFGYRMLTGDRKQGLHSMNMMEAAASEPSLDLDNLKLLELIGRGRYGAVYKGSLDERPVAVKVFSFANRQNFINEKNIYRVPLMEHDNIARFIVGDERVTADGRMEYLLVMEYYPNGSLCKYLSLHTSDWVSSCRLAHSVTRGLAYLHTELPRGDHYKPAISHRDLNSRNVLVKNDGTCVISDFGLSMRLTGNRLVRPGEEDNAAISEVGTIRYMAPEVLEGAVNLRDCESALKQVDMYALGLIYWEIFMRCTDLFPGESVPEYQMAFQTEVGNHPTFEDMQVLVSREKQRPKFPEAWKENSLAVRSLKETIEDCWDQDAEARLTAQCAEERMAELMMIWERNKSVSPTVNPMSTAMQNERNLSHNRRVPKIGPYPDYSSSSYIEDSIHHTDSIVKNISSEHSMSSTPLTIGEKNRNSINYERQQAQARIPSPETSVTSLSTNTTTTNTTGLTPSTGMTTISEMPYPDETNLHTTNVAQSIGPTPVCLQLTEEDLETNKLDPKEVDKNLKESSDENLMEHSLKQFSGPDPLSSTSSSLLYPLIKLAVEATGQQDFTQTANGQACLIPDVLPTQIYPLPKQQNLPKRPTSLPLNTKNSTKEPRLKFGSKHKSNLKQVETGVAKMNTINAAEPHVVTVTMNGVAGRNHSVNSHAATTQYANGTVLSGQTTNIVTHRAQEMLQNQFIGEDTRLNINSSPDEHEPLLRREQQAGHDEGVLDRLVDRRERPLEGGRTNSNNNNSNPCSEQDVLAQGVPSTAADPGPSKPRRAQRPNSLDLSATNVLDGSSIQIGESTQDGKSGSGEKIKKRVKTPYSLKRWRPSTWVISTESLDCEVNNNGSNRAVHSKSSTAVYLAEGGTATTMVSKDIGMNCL
From the text: (§1) Supplement pone.0044653.s004.xls, sheet "Compound 122" | column: Percent Competition

[4] = target: T3, PLK1 (Homo sapiens, UniProt P53350); assay: Ambit kinase profiling, competition binding; settings: compound concentration 10 uM, read-out: Percent Competition
T3 construct: purchased Ambit Biosciences (KINOMEscan)
From the text: as §1

[5] = target: T4, RPS6KA3(Kin.Dom.1-N-terminal) (Homo sapiens, UniProt P51812); assay: Ambit kinase profiling, competition binding; settings: compound concentration 10 uM, read-out: Percent Competition
T4 construct: RPS6KA3(Kin.Dom.1-N-terminal); purchased Ambit Biosciences (KINOMEscan)
T4 sequence (P51812 1-397 limits assumed): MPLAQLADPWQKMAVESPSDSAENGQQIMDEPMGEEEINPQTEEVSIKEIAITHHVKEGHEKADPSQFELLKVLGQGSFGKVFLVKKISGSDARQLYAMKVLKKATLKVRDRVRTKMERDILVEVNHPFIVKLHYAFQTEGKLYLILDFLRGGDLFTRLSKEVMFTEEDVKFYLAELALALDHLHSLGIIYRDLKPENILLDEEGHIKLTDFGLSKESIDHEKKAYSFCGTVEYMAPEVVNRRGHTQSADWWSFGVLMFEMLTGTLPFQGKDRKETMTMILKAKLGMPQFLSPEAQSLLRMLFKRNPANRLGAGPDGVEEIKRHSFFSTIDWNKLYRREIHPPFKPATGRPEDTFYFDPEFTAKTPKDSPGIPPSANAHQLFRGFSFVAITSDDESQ
From the text: as §1

[6] = target: T5, PIM2 (Homo sapiens, UniProt Q9P1W9); assay: Ambit kinase profiling, competition binding; settings: compound concentration 10 uM, read-out: Percent Competition
T5 construct: purchased Ambit Biosciences (KINOMEscan)
T5 sequence (Q9P1W9 whole entry): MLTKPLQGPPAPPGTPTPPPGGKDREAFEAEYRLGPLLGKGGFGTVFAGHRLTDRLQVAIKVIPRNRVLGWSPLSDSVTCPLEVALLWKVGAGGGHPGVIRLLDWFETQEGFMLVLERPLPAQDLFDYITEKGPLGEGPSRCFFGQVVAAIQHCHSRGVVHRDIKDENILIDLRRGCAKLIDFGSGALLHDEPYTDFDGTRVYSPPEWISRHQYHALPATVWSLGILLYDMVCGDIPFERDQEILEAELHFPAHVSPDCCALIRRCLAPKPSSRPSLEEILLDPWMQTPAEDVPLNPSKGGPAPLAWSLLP
From the text: as §1

[7] = target: T6, MEK1 (Homo sapiens, UniProt Q02750); assay: Ambit kinase profiling, competition binding; settings: compound concentration 10 uM, read-out: Percent Competition
T6 construct: purchased Ambit Biosciences (KINOMEscan)
T6 sequence (Q02750 whole entry): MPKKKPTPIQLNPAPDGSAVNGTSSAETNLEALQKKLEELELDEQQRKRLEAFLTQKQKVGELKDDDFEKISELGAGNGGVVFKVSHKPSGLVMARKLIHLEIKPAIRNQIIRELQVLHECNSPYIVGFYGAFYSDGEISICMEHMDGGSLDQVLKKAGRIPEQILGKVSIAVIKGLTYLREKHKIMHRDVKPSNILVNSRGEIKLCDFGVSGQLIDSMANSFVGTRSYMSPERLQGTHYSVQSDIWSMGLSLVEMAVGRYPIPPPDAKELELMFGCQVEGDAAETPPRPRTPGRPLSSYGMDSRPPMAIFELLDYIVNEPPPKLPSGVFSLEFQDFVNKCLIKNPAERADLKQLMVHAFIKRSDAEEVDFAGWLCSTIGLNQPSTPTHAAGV
From the text: as §1

[8] = target: T7, CHEK2 (Homo sapiens, UniProt O96017); assay: Ambit kinase profiling, competition binding; settings: compound concentration 10 uM, read-out: Percent Competition
T7 construct: purchased Ambit Biosciences (KINOMEscan)
T7 sequence (O96017 whole entry): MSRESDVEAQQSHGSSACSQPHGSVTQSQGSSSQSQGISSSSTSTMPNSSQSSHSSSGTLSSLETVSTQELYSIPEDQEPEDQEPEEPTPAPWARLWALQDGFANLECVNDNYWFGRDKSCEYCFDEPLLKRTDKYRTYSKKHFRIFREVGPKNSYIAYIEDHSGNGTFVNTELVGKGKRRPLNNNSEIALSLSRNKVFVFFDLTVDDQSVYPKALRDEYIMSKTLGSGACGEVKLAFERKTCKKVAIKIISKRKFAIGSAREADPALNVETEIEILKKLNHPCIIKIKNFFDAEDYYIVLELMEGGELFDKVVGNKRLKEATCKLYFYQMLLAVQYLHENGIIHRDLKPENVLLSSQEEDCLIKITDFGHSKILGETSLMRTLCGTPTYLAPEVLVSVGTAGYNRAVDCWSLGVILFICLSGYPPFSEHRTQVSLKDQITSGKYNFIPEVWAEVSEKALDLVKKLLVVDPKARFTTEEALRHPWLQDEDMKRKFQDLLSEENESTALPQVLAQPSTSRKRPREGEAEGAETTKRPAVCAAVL
From the text: as §1

[9] = target: T8, PDGFRB (Homo sapiens, UniProt P09619); assay: Ambit kinase profiling, competition binding; settings: compound concentration 10 uM, read-out: Percent Competition
T8 construct: purchased Ambit Biosciences (KINOMEscan)
T8 sequence (P09619 33-1106): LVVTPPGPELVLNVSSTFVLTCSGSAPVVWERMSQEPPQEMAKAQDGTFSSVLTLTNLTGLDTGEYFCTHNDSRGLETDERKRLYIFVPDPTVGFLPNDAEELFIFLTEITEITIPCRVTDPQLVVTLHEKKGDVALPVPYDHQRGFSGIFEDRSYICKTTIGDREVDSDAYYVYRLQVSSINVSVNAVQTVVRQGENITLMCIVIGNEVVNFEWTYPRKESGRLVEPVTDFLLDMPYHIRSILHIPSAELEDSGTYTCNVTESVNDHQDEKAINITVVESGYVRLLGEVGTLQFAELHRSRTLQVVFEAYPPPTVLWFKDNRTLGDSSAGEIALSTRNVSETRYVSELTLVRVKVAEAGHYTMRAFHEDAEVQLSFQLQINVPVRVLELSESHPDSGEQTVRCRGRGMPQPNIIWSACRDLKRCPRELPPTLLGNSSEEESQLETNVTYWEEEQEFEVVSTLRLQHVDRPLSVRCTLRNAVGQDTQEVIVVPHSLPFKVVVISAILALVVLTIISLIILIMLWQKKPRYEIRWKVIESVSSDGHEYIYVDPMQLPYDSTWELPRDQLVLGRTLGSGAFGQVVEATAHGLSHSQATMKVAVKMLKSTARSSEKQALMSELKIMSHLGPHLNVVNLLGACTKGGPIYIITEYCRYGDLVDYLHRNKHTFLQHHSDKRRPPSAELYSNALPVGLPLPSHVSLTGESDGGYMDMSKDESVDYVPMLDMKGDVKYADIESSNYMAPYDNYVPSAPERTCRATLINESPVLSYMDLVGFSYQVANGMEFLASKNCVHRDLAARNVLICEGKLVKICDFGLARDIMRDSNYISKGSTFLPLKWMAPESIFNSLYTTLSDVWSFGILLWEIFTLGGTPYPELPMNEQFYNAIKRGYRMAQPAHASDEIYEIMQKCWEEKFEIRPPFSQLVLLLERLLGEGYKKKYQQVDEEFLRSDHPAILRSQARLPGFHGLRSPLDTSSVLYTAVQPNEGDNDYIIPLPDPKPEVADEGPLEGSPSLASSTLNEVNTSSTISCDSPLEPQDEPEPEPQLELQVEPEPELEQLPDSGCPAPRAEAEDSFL
From the text: as §1

[10] = target: T9, AKT1 (Homo sapiens, UniProt P31749); assay: Ambit kinase profiling, competition binding; settings: compound concentration 10 uM, read-out: Percent Competition
T9 construct: purchased Ambit Biosciences (KINOMEscan)
T9 sequence (P31749 whole entry): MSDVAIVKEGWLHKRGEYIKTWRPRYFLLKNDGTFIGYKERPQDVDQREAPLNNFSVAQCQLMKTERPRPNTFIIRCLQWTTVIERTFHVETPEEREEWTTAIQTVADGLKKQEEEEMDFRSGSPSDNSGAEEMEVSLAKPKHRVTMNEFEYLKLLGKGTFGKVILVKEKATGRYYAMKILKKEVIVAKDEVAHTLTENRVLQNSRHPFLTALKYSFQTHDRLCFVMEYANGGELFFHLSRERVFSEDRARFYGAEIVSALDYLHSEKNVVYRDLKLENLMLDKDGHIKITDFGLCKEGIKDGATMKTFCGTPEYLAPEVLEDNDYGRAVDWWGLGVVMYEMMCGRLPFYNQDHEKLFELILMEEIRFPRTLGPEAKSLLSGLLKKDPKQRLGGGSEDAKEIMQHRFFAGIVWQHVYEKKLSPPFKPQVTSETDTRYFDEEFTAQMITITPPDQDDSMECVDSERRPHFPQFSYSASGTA
From the text: as §1

[11] = target: T10, PAK1 (Homo sapiens, UniProt Q13153); assay: Ambit kinase profiling, competition binding; settings: compound concentration 10 uM, read-out: Percent Competition
T10 construct: purchased Ambit Biosciences (KINOMEscan)
From the text: as §1

[12] = target: T11, JAK3(JH1domain-catalytic) (Homo sapiens, UniProt P52333); assay: Ambit kinase profiling, competition binding; settings: compound concentration 10 uM, read-out: Percent Competition
T11 construct: JAK3(JH1domain-catalytic); purchased Ambit Biosciences (KINOMEscan)
T11 sequence (P52333 782-1124 limits assumed): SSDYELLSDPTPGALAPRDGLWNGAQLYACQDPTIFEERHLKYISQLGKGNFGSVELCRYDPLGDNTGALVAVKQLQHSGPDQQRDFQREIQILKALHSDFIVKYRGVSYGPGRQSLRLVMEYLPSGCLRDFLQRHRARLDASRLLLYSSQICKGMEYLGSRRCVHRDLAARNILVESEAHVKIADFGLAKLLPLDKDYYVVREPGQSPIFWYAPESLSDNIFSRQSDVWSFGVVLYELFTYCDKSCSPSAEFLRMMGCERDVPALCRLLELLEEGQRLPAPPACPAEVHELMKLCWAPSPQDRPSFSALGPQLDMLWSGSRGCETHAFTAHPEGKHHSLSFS
From the text: as §1

[13] = target: T12, ERK5 (Homo sapiens, UniProt Q13164); assay: Ambit kinase profiling, competition binding; settings: compound concentration 10 uM, read-out: Percent Competition
T12 construct: purchased Ambit Biosciences (KINOMEscan)
From the text: as §1

[14] = target: T13, MAP4K3 (Homo sapiens, UniProt Q8IVH8); assay: Ambit kinase profiling, competition binding; settings: compound concentration 10 uM
T13 construct: purchased Ambit Biosciences (KINOMEscan)
From the text: as §1

[15] = target: T14, TYK2(JH1domain-catalytic) (Homo sapiens, UniProt P29597); assay: Ambit kinase profiling, competition binding; settings: compound concentration 10 uM
T14 construct: TYK2(JH1domain-catalytic); purchased Ambit Biosciences (KINOMEscan)
T14 sequence (P29597 885-1187 limits assumed): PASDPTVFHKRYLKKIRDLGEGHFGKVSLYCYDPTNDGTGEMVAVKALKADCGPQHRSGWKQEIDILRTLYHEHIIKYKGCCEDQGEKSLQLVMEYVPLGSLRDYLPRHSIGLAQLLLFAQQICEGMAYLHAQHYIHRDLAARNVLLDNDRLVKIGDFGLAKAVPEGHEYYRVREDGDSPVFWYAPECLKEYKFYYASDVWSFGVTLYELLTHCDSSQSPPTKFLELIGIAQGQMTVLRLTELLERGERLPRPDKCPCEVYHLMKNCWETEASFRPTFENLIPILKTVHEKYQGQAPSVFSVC
From the text: as §1

Fc1ccc(-c2c(-c3ccncc3)[nH]c3nccnc23)cc1 [Compound 122]
inhibition at 1 µM ([1]; 1 µM, triplicate determinations): 62%

CC(O)CNc1cc(-c2[nH]c3cccnc3c2-c2ccc(F)cc2)ccn1 (stereo not shown) [Compound 140]
inhibition at 1 µM [1]: 80% | inhibition of p38α [2]: most potent

Fc1ccc(-c2c(-c3ccncc3)[nH]c3nccnc23)cc1 [RO1155697-000-005]
Percent Competition [3]: <50% | inhibition at 10 µM [4]: < 50% | inhibition at 10 µM [5]: < 50% | inhibition at 10 µM [6]: < 50% | inhibition at 10 µM [7]: < 50% | inhibition at 10 µM [8]: < 50% | inhibition at 10 µM [9]: < 50% | inhibition at 10 µM [10]: < 50% | inhibition at 10 µM [11]: < 50% | inhibition at 10 µM [12]: < 50% | inhibition at 10 µM [13]: < 50% | Percent Competition [14]: <50% | Percent Competition [15]: <50%
